Laboratory results reported in ChEMBL document CHEMBL6153079, “Discovery of noncovalent diaminopyrimidine-based Inhibitors for glioblastoma via a dual FAK/DNA targeting strategy” (Eur J Med Chem, 2025).
Activity calls are given as the source filed them. The rule behind the calls is not given here.

Columns and labels:
[1] = Toxicity in BALB/c mouse implanted with human U-87 MG cells assessed as lung damage at 25 mg/kg, ip administered once daily for 15 days by H and E staining based analysis; assay type: organism-based; details: in vivo, 360 h, time 15 day
[2] = Toxicity in BALB/c mouse implanted with human U-87 MG cells assessed as spleen damage at 25 mg/kg, ip administered once daily for 15 days by H and E staining based analysis; assay type: organism-based; details: in vivo, 360 h, time 15 day
[3] = tested on: U-87 MG; assay: Antitumor activity against human U-87 MG cells xenografted in BALB/c mouse assessed as inhibition of tumor growth at 25 mg/kg, ip administered once daily for 15 days; assay type: functional, U-87MG ATCC; details: 360 h, time 15 day, read-out: TGI
[4] = tested on: U-87 MG; assay: Induction of DNA damage in human U-87 MG cells assessed as comet tail moment at 0.1 to 2 uM incubated for 2.5 to 3 hrs by comet assay; assay type: functional, U-87MG ATCC; details: time 2.5-3 hrs
[5] = tested on: U-87 MG; assay: Inhibition of colony formation in human U-87 MG cells at 0.005 uM incubated for 14 days and subsequent media replacement with compound for every 3 days by crystal violet staining based analysis; assay type: functional, cell-based; details: U-87MG ATCC, time 14.0 day
[6] = tested on: U-87 MG; assay: Induction of cell cycle arrest in human U-87 MG cells assessed as accumulation of cells at G0/G1 phase at 4 uM by propidium Iodide staining based flow cytometry analysis (reference value: 80.68%); assay type: functional, U-87MG ATCC
[7] = tested on: U-87 MG; assay: Induction of cell cycle arrest in human U-87 MG cells assessed as accumulation of cells at […] at 8 uM by propidium Iodide staining based flow cytometry analysis (reference value: 1.67%); assay type: functional, U-87MG ATCC
[8] = tested on: U-87 MG; assay: Induction of cell cycle arrest in human U-87 MG cells assessed as accumulation of cells at […] at 4 uM by propidium Iodide staining based flow cytometry analysis (reference value: 1.67%); assay type: functional, U-87MG ATCC
[9] = tested on: U-87 MG; assay: Antiproliferative activity against human U-87 MG assessed as inhibition of cell growth at 0.025 to 0.1 uM by clonogenic assay relative to control; assay type: functional, U-87MG ATCC; details: dose 0.025-0.1 µM
[10] = tested on: U-87 MG; assay: Induction of apoptosis in human U-87 MG cells assessed as necrotic cells at 4 uM measured upto 24 hrs by Annexin V-FITC/PI staining based flow cytometry analysis (reference value: 0.62%); assay type: functional, U-87MG ATCC
[11] = tested on: U-87 MG; assay: Induction of apoptosis in human U-87 MG cells assessed as late apoptotic cells at 8 uM measured upto 24 hrs by Annexin V-FITC/PI staining based flow cytometry analysis (reference value: 0.54%); assay type: functional, U-87MG ATCC
[12] = tested on: U-87 MG; assay: Inhibition of ERK1/2 phosphorylation in human U-87 MG cells at 0.05 to 0.4 uM incubated for 24 hrs by Western blot analysis; assay type: cell-based; details: dose 0.05-0.4 µM
[13] = target: T1, Focal adhesion kinase 1 (Homo sapiens, UniProt Q05397); assay: Inhibition of FAK phosphorylation in human U-87 MG cells at 0.05 to 0.4 uM incubated for 24 hrs by Western blot analysis; assay type: cell-based; details: dose 0.05-0.4 µM
[14] = tested on: U-87 MG; assay: Induction of apoptosis in human U-87 MG cells assessed as early apoptotic cells at 8 uM measured upto 24 hrs by Annexin V-FITC/PI staining based flow cytometry analysis (reference value: 0.45%); assay type: functional, U-87MG ATCC
[15] = tested on: U-87 MG; assay: Inhibition of colony formation in human U-87 MG cells at 0.005 uM incubated for 14 days and subsequent media replacement with compound for every 3 days in presence of Chlorambucil by crystal violet staining based analysis; assay type: functional, cell-based; details: U-87MG ATCC, time 14.0 day
[16] = tested on: U-87 MG; assay: Induction of apoptosis in human U-87 MG cells assessed as necrotic cells at 8 uM measured upto 24 hrs by Annexin V-FITC/PI staining based flow cytometry analysis (reference value: 0.62%); assay type: functional, U-87MG ATCC
[17] = tested on: U-87 MG; assay: Antiproliferative activity against human U-87 MG assessed as inhibition of cell growth at 0.005 uM in presence of Chlorambucil by clonogenic assay relative to control; assay type: functional, U-87MG ATCC
[18] = tested on: U-87 MG; assay: Induction of apoptosis in human U-87 MG cells assessed as viable cells at 4 uM measured upto 24 hrs by Annexin V-FITC/PI staining based flow cytometry analysis (reference value: 98.4%); assay type: functional, U-87MG ATCC; details: read-out: Activity
[19] = tested on: U-251; assay: Antiproliferative activity against human U-251 assessed as cell viability incubated for 48 hrs by MTT assay; assay type: functional, cell-based; details: U-251, 48 h
[20] = tested on: U-87 MG; assay: Induction of apoptosis in human U-87 MG cells assessed as early apoptotic cells at 2 uM measured upto 24 hrs by Annexin V-FITC/PI staining based flow cytometry analysis (reference value: 0.45%); assay type: functional, U-87MG ATCC
[21] = tested on: U-87 MG; assay: Induction of cell cycle arrest in human U-87 MG cells assessed as accumulation of cells at G0/G1 phase at 2 uM by propidium Iodide staining based flow cytometry analysis (reference value: 80.68%); assay type: functional, U-87MG ATCC
[22] = tested on: U-87 MG; assay: Induction of apoptosis in human U-87 MG cells assessed as viable cells at 8 uM measured upto 24 hrs by Annexin V-FITC/PI staining based flow cytometry analysis (reference value: 98.4%); assay type: functional, U-87MG ATCC; details: read-out: Activity
[23] = tested on: U-87 MG; assay: Induction of apoptosis in human U-87 MG cells assessed as […] in Bcl-xL level at 0.05 to 0.8 uM incubated for 24 hrs by Western blot analysis; assay type: functional, cell-based; details: U-87MG ATCC, dose 0.05-0.8 µM
[24] = tested on: U-87 MG; assay: Induction of cell cycle arrest in human U-87 MG cells assessed as accumulation of cells at G0/G1 phase at 8 uM by propidium Iodide staining based flow cytometry analysis (reference value: 80.68%); assay type: functional, U-87MG ATCC
[25] = tested on: U-87 MG; assay: Inhibition of cell migration in human U-87 MG cells assessed as […] in migration distance at 0.1 to 1 uM incubated for 24 to 48 hrs by wound healing assay; assay type: functional, cell-based; details: U-87MG ATCC, dose 0.1-1 µM, time lower 24.0 hrs, time upper […]
[26] = tested on: U-87 MG; assay: Induction of cell cycle arrest in human U-87 MG cells assessed as accumulation of cells at […] at 2 uM by propidium Iodide staining based flow cytometry analysis (reference value: 1.67%); assay type: functional, U-87MG ATCC
[27] = tested on: U-87 MG; assay: Induction of apoptosis in human U-87 MG cells assessed as […] in cleaved caspase-3 level at 0.05 to 0.8 uM incubated for 24 hrs by Western blot analysis; assay type: functional, cell-based; details: U-87MG ATCC, dose 0.05-0.8 µM
[28] = tested on: U-87 MG; assay: Induction of cell cycle arrest in human U-87 MG cells assessed as accumulation of cells at S phase at 2 uM by propidium Iodide staining based flow cytometry analysis (reference value: 9.59%); assay type: functional, U-87MG ATCC
[29] = Cytotoxicity against human 2BS assessed as cell viability incubated for 48 hrs by MTT assay; assay type: toxicity, cell-based; details: 2BS cells
[30] = tested on: U-87 MG; assay: Antiproliferative activity against human U-87 MG assessed as inhibition of cell growth at 0.025 to 0.1 uM in presence of Chlorambucil by clonogenic assay relative to control; assay type: functional, U-87MG ATCC; details: dose 0.025-0.1 µM
[31] = tested on: U-87 MG; assay: Inhibition of AKT phosphorylation in human U-87 MG cells at 0.05 to 0.4 uM incubated for 24 hrs by Western blot analysis; assay type: cell-based; details: dose 0.05-0.4 µM
[32] = tested on: U-87 MG; assay: Induction of cell cycle arrest in human U-87 MG cells assessed as accumulation of cells at G2M phase at 2 uM by propidium Iodide staining based flow cytometry analysis (reference value: 9.73%); assay type: functional, U-87MG ATCC
[33] = tested on: U-87 MG; assay: Induction of apoptosis in human U-87 MG cells assessed as late apoptotic cells at 4 uM measured upto 24 hrs by Annexin V-FITC/PI staining based flow cytometry analysis (reference value: 0.54%); assay type: functional, U-87MG ATCC
[34] = Distribution coefficient, logD of compound in n-Octanol/water at pH 7.4; assay type: physicochemical
[35] = tested on: U-87 MG; assay: Antiproliferative activity against human U-87 MG assessed as cell viability incubated for 48 hrs by MTT assay; assay type: functional, cell-based, U-87MG ATCC
[36] = tested on: U-87 MG; assay: Induction of apoptosis in human U-87 MG cells assessed as early apoptotic cells at 4 uM measured upto 24 hrs by Annexin V-FITC/PI staining based flow cytometry analysis (reference value: 0.45%); assay type: functional, U-87MG ATCC
[37] = tested on: U-87 MG; assay: Antiproliferative activity against human U-87 MG assessed as inhibition of cell growth at 0.005 uM by clonogenic assay relative to control; assay type: functional, U-87MG ATCC
[38] = tested on: U-87 MG; assay: Induction of cell cycle arrest in human U-87 MG cells assessed as accumulation of cells at G2M phase at 4 uM by propidium Iodide staining based flow cytometry analysis (reference value: 9.73%); assay type: functional, U-87MG ATCC
[39] = tested on: U-87 MG; assay: Induction of cell cycle arrest in human U-87 MG cells assessed as accumulation of cells at S phase at 4 uM by propidium Iodide staining based flow cytometry analysis (reference value: 9.59%); assay type: functional, U-87MG ATCC
[40] = tested on: U-87 MG; assay: Inhibition of cell migration in human U-87 MG cells assessed as […] at 0.1 to 1 uM by wound healing assay; assay type: functional, cell-based; details: U-87MG ATCC, dose 0.1-1 µM, time lower 24.0 hrs, time upper […]
[41] = tested on: U-87 MG; assay: Induction of apoptosis in human U-87 MG cells assessed as late apoptotic cells at 2 uM measured upto 24 hrs by Annexin V-FITC/PI staining based flow cytometry analysis (reference value: 0.54%); assay type: functional, U-87MG ATCC
[42] = tested on: U-87 MG; assay: Induction of cell cycle arrest in human U-87 MG cells assessed as accumulation of cells at S phase at 8 uM by propidium Iodide staining based flow cytometry analysis (reference value: 9.59%); assay type: functional, U-87MG ATCC
[43] = tested on: U-87 MG; assay: Induction of cell cycle arrest in human U-87 MG cells assessed as accumulation of cells at G2M phase at 8 uM by propidium Iodide staining based flow cytometry analysis (reference value: 9.73%); assay type: functional, U-87MG ATCC
[44] = Cytotoxicity against human LO2 assessed as cell viability incubated for 48 hrs by MTT assay; assay type: toxicity, cell-based, L02; details: LO2 cells
[45] = target: T1, Focal adhesion kinase 1; assay: Inhibition of FAK (unknown origin) at 10 nM relative to control
[46] = tested on: U-87 MG; assay: Induction of apoptosis in human U-87 MG cells assessed as viable cells at 2 uM measured upto 24 hrs by Annexin V-FITC/PI staining based flow cytometry analysis (reference value: 98.4%); assay type: functional, U-87MG ATCC; details: read-out: Activity
[47] = tested on: U-87 MG; assay: Induction of apoptosis in human U-87 MG cells assessed as necrotic cells at 2 uM measured upto 24 hrs by Annexin V-FITC/PI staining based flow cytometry analysis (reference value: 0.62%); assay type: functional, U-87MG ATCC

T1 sequence (Q05397 2-1052 limits assumed): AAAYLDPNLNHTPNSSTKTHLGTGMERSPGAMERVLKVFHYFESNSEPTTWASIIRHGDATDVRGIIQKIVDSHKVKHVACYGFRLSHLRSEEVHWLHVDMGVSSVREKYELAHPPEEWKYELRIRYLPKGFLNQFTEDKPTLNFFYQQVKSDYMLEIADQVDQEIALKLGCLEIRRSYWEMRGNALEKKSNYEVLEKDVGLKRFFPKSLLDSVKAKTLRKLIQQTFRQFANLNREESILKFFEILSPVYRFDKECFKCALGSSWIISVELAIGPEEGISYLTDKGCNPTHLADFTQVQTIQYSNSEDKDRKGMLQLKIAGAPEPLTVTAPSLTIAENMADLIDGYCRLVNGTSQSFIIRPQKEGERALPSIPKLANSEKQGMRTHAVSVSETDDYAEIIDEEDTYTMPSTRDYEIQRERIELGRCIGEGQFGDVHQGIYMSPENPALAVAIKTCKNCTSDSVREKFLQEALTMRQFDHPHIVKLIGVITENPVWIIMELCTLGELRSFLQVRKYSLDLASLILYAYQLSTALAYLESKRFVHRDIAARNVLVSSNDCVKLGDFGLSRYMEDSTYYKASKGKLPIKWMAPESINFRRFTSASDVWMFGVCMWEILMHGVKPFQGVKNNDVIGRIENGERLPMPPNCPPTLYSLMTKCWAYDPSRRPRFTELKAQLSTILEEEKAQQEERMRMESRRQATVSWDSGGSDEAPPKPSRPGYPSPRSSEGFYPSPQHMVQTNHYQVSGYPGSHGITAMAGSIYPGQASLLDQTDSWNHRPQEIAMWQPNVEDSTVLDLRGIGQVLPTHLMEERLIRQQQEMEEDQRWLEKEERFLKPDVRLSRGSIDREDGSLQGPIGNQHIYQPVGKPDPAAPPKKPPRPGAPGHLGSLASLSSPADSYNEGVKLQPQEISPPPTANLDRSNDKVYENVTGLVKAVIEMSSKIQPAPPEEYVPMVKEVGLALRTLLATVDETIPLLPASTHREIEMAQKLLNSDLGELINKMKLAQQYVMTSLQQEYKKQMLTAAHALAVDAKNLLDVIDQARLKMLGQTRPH

SMILES: Cn1nnc2c(C(N)=O)ncn2c1=O [TEMOZOLOMIDE]
- Activity [1]: Non-toxic
- Activity [2]: Non-toxic
- inhibition in vivo at 25 mg/kg [3]: 31.4%
- Activity [4]: 11.6

SMILES: CNC(=O)c1ccccc1Nc1nc(Nc2ccc(N3CCOCC3)cc2OC)ncc1Cl
- inhibition [5]: inactive
- Activity [6]: 56.37%
- Activity [7]: 1.84%
- Activity [8]: 1.81%
- inhibition (INH) [9]: 60%
- Activity [10]: 6.39%
- Activity [11]: 12.3%
- inhibition [12]: inactive
- inhibition [13]: inactive
- Activity [14]: 26.2%
- inhibition [15]: inactive
- Activity [16]: 0.31%
- inhibition at 0.005 µM [17]: 12%
- viability at 4 µM [18]: 78.2%
- IC50 [19]: 5.84 µM
- Activity [20]: 2.78%
- Activity [21]: 72.55%
- viability at 8 µM [22]: 61.2%
- Activity [23]: Active
- Activity [24]: 33.93%
- inhibition [25]: Active
- Activity [26]: 1.75%
- Activity [27]: Active
- Activity [28]: 12.83%
- IC50 at 48 h [29]: 42.8 µM
- inhibition (INH) [30]: 61%
- Activity ([4]; U-87MG ATCC): inactive
- inhibition [31]: inactive
- Activity [32]: 14.62%
- Activity [33]: 4.35%
- logD [34]: 3.49
- IC50 [35]: 2.85 µM
- Activity [36]: 11%
- inhibition at 0.005 µM [37]: ~8%
- Activity [38]: 23.91%
- Activity [39]: 19.73%
- inhibition [40]: Time-dependent-effect
- Activity [41]: 9.29%
- Activity [42]: 3.66%
- Activity [43]: 62.41%
- IC50 at 48 h [44]: 4.14 µM
- inhibition [45]: 78.6%
- viability at 2 µM [46]: 84.3%
- Activity [47]: 3.64%
